In this assay the test system is A2780. The assay is described as follows: Antiproliferative activity against drug-sensitive human A2780 cells. The class given is functional, cell-based.

We go through 5 molecules from ChEMBL document CHEMBL1629496, “Four diphenylpropanes and a cycloheptadibenzofuran from Bussea sakalava from the Madagascar dry forest” (J Nat Prod, 2010).

pIC50: −log10 of the molar value.

Consider `COc1cc(OC)c(CCCc2ccc(OC)c(O)c2O)cc1O` [BUSSEALIN B], for which the pIC50 is 4.62. The figure for `COc1ccc(CCCc2ccc(OC)c(O)c2O)cc1O` [BUSSEALIN C] is 4.44. The figure for `COc1c(O)c2c3c(oc4c(OC)c(O)cc(c43)CCC2)c1OC` [BUSSEALIN E] is 4.35; for `COc1ccc(CCCc2cc(O)c(OC)c(O)c2)c(O)c1O` [BUSSEALIN A] it is 4.44; for `COc1cc(OC)c(OC)cc1CCCc1ccc(OC)c(O)c1O` [BUSSEALIN D] it is 4.40.

In general, pIC50 refers to −log10 of the IC50, conventionally taken in molar units. A low value points to a high IC50.
